Assay results reported in the supplement of paper PMC11451515.

Tested on: NOMO1
Assay: cell viability relative to DMSO control; higher = less cytotoxic
Conditions: 48 h
How it was run: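 In 1536-well plates, 5 μl of leukemia cells were seeded per well: 500 cells/well for NOMO1 or SEM and 1000 cells/well for P12-Ichikawa. Each line had first been adapted for at least four passages in each medium. Library compounds in DMSO were pin-dosed at 11 threefold concentrations between 47 μM and 0.79 nM, and CellTiter-Glo One luminescence was read after 48 h at 37°C. Viability is a per-plate percentage relative to DMSO wells, with cell-free wells as background.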

[1] = HPLM + 10% dialyzed FBS, 0.000781 µM
[2] = HPLM + 10% dialyzed FBS, 0.00234 µM
[3] = HPLM + 10% dialyzed FBS, 0.00702 µM
[4] = HPLM + 10% dialyzed FBS, 0.0211 µM
[5] = HPLM + 10% dialyzed FBS, 0.0632 µM
[6] = HPLM + 10% dialyzed FBS, 0.19 µM
[7] = HPLM + 10% dialyzed FBS, 0.569 µM
[8] = HPLM + 10% dialyzed FBS, 1.71 µM
[9] = HPLM + 10% dialyzed FBS, 5.12 µM
[10] = HPLM + 10% dialyzed FBS, 15.4 µM
[11] = HPLM + 10% dialyzed FBS, 46.1 µM
[12] = RPMI 5 mM glucose + 10% FBS, 0.000781 µM
[13] = RPMI 5 mM glucose + 10% FBS, 0.00234 µM
[14] = RPMI 5 mM glucose + 10% FBS, 0.00702 µM
[15] = RPMI 5 mM glucose + 10% FBS, 0.0211 µM
[16] = RPMI 5 mM glucose + 10% FBS, 0.0632 µM
[17] = RPMI 5 mM glucose + 10% FBS, 0.19 µM
[18] = RPMI 5 mM glucose + 10% FBS, 0.569 µM
[19] = RPMI 5 mM glucose + 10% FBS, 1.71 µM
[20] = RPMI 5 mM glucose + 10% FBS, 5.12 µM
[21] = RPMI 5 mM glucose + 10% FBS, 15.4 µM
[22] = RPMI 5 mM glucose + 10% FBS, 46.1 µM
[23] = RPMI 5 mM glucose + 10% dialyzed FBS, 0.000781 µM
[24] = RPMI 5 mM glucose + 10% dialyzed FBS, 0.00234 µM
[25] = RPMI 5 mM glucose + 10% dialyzed FBS, 0.00702 µM
[26] = RPMI 5 mM glucose + 10% dialyzed FBS, 0.0211 µM
[27] = RPMI 5 mM glucose + 10% dialyzed FBS, 0.0632 µM
[28] = RPMI 5 mM glucose + 10% dialyzed FBS, 0.19 µM
[29] = RPMI 5 mM glucose + 10% dialyzed FBS, 0.569 µM
[30] = RPMI 5 mM glucose + 10% dialyzed FBS, 1.71 µM
[31] = RPMI 5 mM glucose + 10% dialyzed FBS, 5.12 µM
[32] = RPMI 5 mM glucose + 10% dialyzed FBS, 15.4 µM
[33] = RPMI 5 mM glucose + 10% dialyzed FBS, 46.1 µM

SMILES | cell viability [1] | cell viability [2] | cell viability [3] | cell viability [4] | cell viability [5] | cell viability [6] | cell viability [7] | cell viability [8] | cell viability [9] | cell viability [10] | cell viability [11] | cell viability [12] | cell viability [13] | cell viability [14] | cell viability [15] | cell viability [16] | cell viability [17] | cell viability [18] | cell viability [19] | cell viability [20] | cell viability [21] | cell viability [22] | cell viability [23] | cell viability [24] | cell viability [25] | cell viability [26] | cell viability [27] | cell viability [28] | cell viability [29] | cell viability [30] | cell viability [31] | cell viability [32] | cell viability [33]
CC(C)[N+]1(C)C2CCC1CC(OC(=O)C(CO)c1ccccc1)C2.O.[Br-] (centres undefined) | 129% | 118% | 120% | 117% | 123% | 119% | 148% | 134% | 101% | 58.8% | 21.9% | 103% | 105% | 95.1% | 118% | 108% | 123% | 101% | 116% | 109% | 92.3% | 48.6% | 115% | 115% | 119% | 110% | 132% | 114% | 127% | 121% | 105% | 93.2% | 60.7%
CC(C)(O)C(=O)Nc1ccc([N+](=O)[O-])c(C(F)(F)F)c1 | 94.7% | 116% | 131% | 124% | 122% | 135% | 126% | 65.8% | 38% | 30.6% | 30.5% | 118% | 123% | 124% | 122% | 120% | 132% | 125% | 51.1% | 29% | 24.1% | 25.7% |  |  |  |  |  |  |  |  |  |  | 
CN(C(Cc1ccc(O[S+](=O)([O-])c2cccc3cnccc23)cc1)C(=O)N1CCN(c2ccccc2)CC1)[S+](=O)([O-])c1cccc2cnccc12 (centres undefined) | 127% | 98.3% | 109% | 113% | 103% | 120% | 132% | 95.2% | 105% | 77% | 48.4% | 93.8% | 81.5% | 95.8% | 101% | 93.8% | 86.3% | 95.2% | 82.6% | 91.4% | 82.5% | 66.3% | 82.5% | 97.7% | 99.8% | 94.5% | 89.2% | 101% | 93.9% | 98.4% | 93.8% | 81.6% | 56.1%
COc1ccc2[nH]cc(CCNC(C)=O)c2c1 | 115% | 115% | 125% | 131% | 114% | 129% | 118% | 119% | 131% | 112% | 114% |  |  |  |  |  |  |  |  |  |  |  |  |  |  |  |  |  |  |  |  |  | 
CCCCc1nc2cc(/C=C/C(=O)NO)ccc2n1CCN(CC)CC | 109% | 112% | 94.2% | 106% | 86.9% | 99.7% | 85.1% | 84.8% | 39.3% | 4.23% | 6.15% | 80.5% | 83.2% | 83.2% | 87.1% | 94.2% | 89.3% | 86.8% | 85.9% | 28.6% | 4.31% | 4.51% | 74.9% | 98.4% | 86.4% | 91.5% | 94.3% | 97.2% | 86.2% | 79.3% | 57.9% | 5.08% | 4.97%
CC[C@@H]1C(=O)N(C)c2cnc(Nc3ccc(C(=O)NC4CCN(C)CC4)cc3OC)nc2N1C1CCCC1 | 125% | 115% | 124% | 118% | 45.9% | 43.7% | 57.4% | 46.6% | 36.9% | 21.5% | 4.78% | 117% | 112% | 116% | 117% | 68.9% | 28.6% | 24.5% | 27.1% | 22.9% | 14.3% | 5.11% | 107% | 121% | 113% | 117% | 53.9% | 30% | 32.6% | 39% | 30.9% | 21.8% | 10.4%
O=[S+]([O-])(NCCNC/C=C/c1ccc(Br)cc1)c1cccc2cnccc12 | 110% | 114% | 109% | 81.5% | 101% | 105% | 104% | 97.5% | 95.4% | 79.3% | 69.5% | 98.4% | 88.6% | 92.8% | 105% | 91.3% | 97.6% | 96.1% | 98.8% | 84% | 87.5% | 85.6% | 103% | 100% | 90.7% | 78.4% | 97.6% | 89.9% | 89.1% | 85.3% | 89.7% | 74.3% | 81.7%
CS[C@H]1SC[C@@H]2C(=O)N(C)[C@H](C(C)C)C(=O)OC[C@H](NC(=O)c3cnc4ccccc4n3)C(=O)N[C@H](C)C(=O)N(C)[C@H]1C(=O)N(C)[C@H](C(C)C)C(=O)OC[C@H](NC(=O)c1cnc3ccccc3n1)C(=O)N[C@H](C)C(=O)N2C | 90.5% | 92.4% | 81% | 34% | 7.25% | 7.68% | 7.01% | 6.88% | 6.12% | 5.83% | 3.83% | 86.1% | 83% | 92.4% | 44.5% | 5.63% | 5.77% | 5.98% | 5.95% | 5.48% | 4.23% | 4.39% | 92.6% | 81.1% | 83.2% | 49.8% | 5.73% | 5.24% | 5.79% | 5.79% | 5.29% | 4% | 3.33%
Cc1c(C(=O)c2cccc3ccccc23)c2cccc3c2n1[C@H](CN1CCOCC1)CO3 | 104% | 100% | 94.2% | 101% | 99.9% | 91% | 89.5% | 86.9% | 97.9% | 86.1% | 5.74% | 91.4% | 83.8% | 87.4% | 87.8% | 96.7% | 94.4% | 86.4% | 91% | 88.7% | 81.4% | 4.88% | 84.2% | 90% | 86.3% | 86.9% | 95.8% | 85.5% | 85.4% | 88.1% | 87.5% | 77.7% | 5.16%
